Experimental findings from ChEMBL document CHEMBL4665629, “An optimised series of substituted N-phenylpyrrolamides as DNA gyrase B inhibitors” (Eur J Med Chem, 2019) are described below.

Common to all, as to type: functional
Assay [1] relates to Staphylococcus aureus. The assay can be described thus: Antibacterial activity against Staphylococcus aureus ATCC 29213 assessed as bacterial growth inhibition at 50 uM incubated for 24 hrs by CLSI protocol based broth microdilution assay relative to control. A general note: Broth dilution looks for growth in wells or tubes with falling amounts of substance.
Another assay has as its system Enterococcus faecium. In words: Antibacterial activity against Enterococcus faecium ATCC 35667 assessed as bacterial growth inhibition at 50 uM incubated for 24 hrs by CLSI protocol based broth microdilution assay relative to control.
The next assay has as its system Acinetobacter baumannii. The assay can be described thus: Antibacterial activity against Acinetobacter baumannii ATCC 19606 assessed as bacterial growth inhibition at 50 uM incubated for 24 hrs by CLSI protocol based broth microdilution assay relative to control. As to conditions: ATCC 19606 = CIP 70.34 = JCM 6841.
The test system of the next assay is Pseudomonas aeruginosa. In words: Antibacterial activity against Pseudomonas aeruginosa ATCC 27853 assessed as minimum inhibitory concentration required for >=90% inhibition of bacterial growth in presence of phenylalanine-arginine beta-naphthylamide by CLSI protocol based broth microdilution assay.
Assay [2] relates to Escherichia coli. In words: Antibacterial activity against Escherichia coli MG1655 assessed as minimum inhibitory concentration required for >=90% inhibition of bacterial growth in presence of phenylalanine-arginine beta-naphthylamide by CLSI protocol based broth microdilution assay.
Assay [3] deals with Staphylococcus aureus. The assay can be described thus: Antibacterial activity against methicillin-resistant and vancomycin-intermediate Staphylococcus aureus ATCC 700699 assessed as minimum inhibitory concentration required for >=90% inhibition of bacterial growth by CLSI protocol based broth microdilution assay.
The subject of assay [4] is Staphylococcus aureus. The assay can be described thus: Antibacterial activity against methicillin-resistant Staphylococcus aureus ATCC 43300 assessed as minimum inhibitory concentration required for >=90% inhibition of bacterial growth by CLSI protocol based broth microdilution assay.
Another assay relates to Streptococcus pyogenes. The assay can be described thus: Antibacterial activity against Streptococcus pyogenes ATCC 19653 assessed as minimum inhibitory concentration required for >=90% inhibition of bacterial growth by CLSI protocol based broth microdilution assay.
The test system of assay [5] is Staphylococcus aureus. The assay can be described thus: Antibacterial activity against Staphylococcus aureus ATCC 29213 assessed as minimum inhibitory concentration required for >=90% inhibition of bacterial growth by CLSI protocol based broth microdilution assay.
In assay [6] the test system is Escherichia coli. In words: Antibacterial activity against wild type Escherichia coli MG1655 assessed as minimum inhibitory concentration required for >=90% inhibition of bacterial growth in presence of 50 ug/ml phenylalanine-arginine beta-naphthylamide.
Assay [7] has as its system Escherichia coli. In words: Antibacterial activity against Escherichia coli MG1655 harboring […]/D87N mutant assessed as minimum inhibitory concentration required for >=90% inhibition of bacterial growth in presence of 50 ug/ml phenylalanine-arginine beta-naphthylamide.
Assay [8] relates to Escherichia coli. The assay can be described thus: Antibacterial activity against Escherichia coli MG1655 harboring […]/D87N and ParC S80I/E84G mutants assessed as minimum inhibitory concentration required for >=90% inhibition of bacterial growth in presence of 50 ug/ml phenylalanine-arginine beta-naphthylamide.
The test system of assay [9] is Klebsiella pneumoniae. The assay can be described thus: Antibacterial activity against wild type Klebsiella pneumoniae ATCC 10031 assessed as minimum inhibitory concentration required for >=90% inhibition of bacterial growth in presence of 10 ug/ml phenylalanine-arginine beta-naphthamide.
Assay [10] concerns Klebsiella pneumoniae. In words: Antibacterial activity against wild type Klebsiella pneumoniae ATCC 10031 harboring GyrA S83F/D87G and ParC S80I mutants assessed as minimum inhibitory concentration required for >=90% inhibition of bacterial growth in presence of 10 ug/ml phenylalanine-arginine beta-naphthamide.

The structures appear in SMILES notation. Values after ≈ are worked out from the molar mass of the structure shown.

Turning to `CCn1cc(C(=O)O)c(=O)c2ccc(NC(=O)c3[nH]c(C)c(Cl)c3Cl)cc21`, the inhibition (as a rule, how much of the control response was suppressed) at 50 µM in the assay with Staphylococcus aureus [1] was determined as 100%; in the assay on Enterococcus faecium, 97%; with Acinetobacter baumannii, 2%. The MIC (in general, the smallest concentration in the dilution series that meets the test's criterion for growth inhibition) in the assay with Pseudomonas aeruginosa was more than 32 µM; in the assay on Escherichia coli [2], 2.5 µM; in the assay on Staphylococcus aureus [3], 2.5 µM (≈ 1.02 µg/mL); in the assay with Staphylococcus aureus [4], 2.5 µM (≈ 1.02 µg/mL); in the assay on Streptococcus pyogenes, 0.72 µM (≈ 0.294 µg/mL); in the assay with Staphylococcus aureus [5], 0.78 µM (≈ 0.318 µg/mL). Besides, the minimal inhibitory concentration (MIC) was determined as 2.5 µM with Escherichia coli [6]; 2.5 µM in the assay on Escherichia coli [7]; 2.5 µM in the assay on Escherichia coli [8]; 1.2 µM in the assay on Klebsiella pneumoniae [9]; 1.2 µM in the assay with Klebsiella pneumoniae [10].
